Test results: patent US10233186B2, “Inhibitors of activin receptor-like kinase” (BLUEPRINT MEDICINES CORPORATION, priority 2016, dated 2019)
Values belong to the compound of their own block, whether it stands above or below them.

How the values were obtained:
[1] = biological target: T1, ALK2 R206H (GST-tagged mutant ALK2) (Homo sapiens, UniProt Q04771, R206H); experiment: ALK binding assay (LANTHASCREEN TR-FRET competitive binding, displacement of Kinase Tracer 178); settings: ALK2 R206H, LANTHASCREEN TR-FRET competitive binding; read-out: Binding Assay (IC50)
T1 construct: purchased Carna Bioscience or ThermoFisher 09-148 or PV6232
T1 sequence (Q04771 21-509 R206H): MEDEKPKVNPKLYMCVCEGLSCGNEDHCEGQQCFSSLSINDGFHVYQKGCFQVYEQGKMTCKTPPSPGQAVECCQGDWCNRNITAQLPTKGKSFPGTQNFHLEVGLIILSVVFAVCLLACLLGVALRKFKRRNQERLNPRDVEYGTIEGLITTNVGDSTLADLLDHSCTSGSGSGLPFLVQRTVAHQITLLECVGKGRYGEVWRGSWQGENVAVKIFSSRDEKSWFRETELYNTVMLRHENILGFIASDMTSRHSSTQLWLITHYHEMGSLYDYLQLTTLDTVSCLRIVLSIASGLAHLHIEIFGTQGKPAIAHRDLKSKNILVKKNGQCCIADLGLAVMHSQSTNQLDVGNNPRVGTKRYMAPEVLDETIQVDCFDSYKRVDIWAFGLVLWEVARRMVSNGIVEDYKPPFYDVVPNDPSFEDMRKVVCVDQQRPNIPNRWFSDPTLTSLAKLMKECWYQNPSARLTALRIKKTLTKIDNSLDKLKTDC

human ALK2 R206H = biological target: T2, human ALK2 R206H (Homo sapiens, UniProt Q04771, R206H); experiment: Cell-based ALK2-R206H cell activity assay (Smad1-Ser463/Ser465 phosphorylation by AlphaLISA in HEK293-ALK2-R206H cells); settings: read-out: Cell Line (Cell Assay IC50)
T2 construct: expressed in transfected cells; host or cells: HEK293 (ATCC CRL1573), lentivirus transduction, blasticidin selection
T2 sequence (Q04771 21-509 R206H): T1 sequence (Q04771 21-509 R206H)
Method: A HEK293 (ATCC, Cat^# CRL1573) based stable cell line expressing human ALK2 R206H cDNA (synthesized by GeneScript, Piscataway, N.J.) and a FLAG tag at the C-terminus was generated by lentivirus transduction and subsequent blasticidin (Life Technologies, Cat^#-A1113902) selection at 10 μg/ml for >2 wks. This cell line was named HEK293-ALK2-R206H.
Test compounds were first diluted to 4 mM or 0.4 mM and then serially diluted 3-fold into 10 different concentrations using DMSO. […] Two μl of the diluted compounds were then dispensed into the HEK293-ALK2-R206H cell-containing wells of the microplates in duplicates. In this way, each compound was tested in 10 doses (3-fold serial dilution with the top concentration being 10 μM or 1 μM). Liquid handling was achieved using a Bravo Automated Liquid Handling Platform (Agilent Technologies). DMSO without compound was used as a negative control. The positive control was 1 μM LDN193189, a known bone morphogenetic protein (BMP inhibitor).
The 10-point dose response curve was used to calculate the IC50 values.
Blank values in the table indicate that the particular compound was not tested in this assay.

- IC50 [1]: < 10 nM
- IC50 (human ALK2 R206H): < 100 nM
SMILES: CCN1CCC(c2ccc(-c3cc4c(N5CCN(C(=O)C6CC6)CC5)ccnn4c3)cc2)CC1 [Compound 200]

- IC50 [1]: < 10 nM
- IC50 (human ALK2 R206H): < 100 nM
SMILES: CC(C)N1CCC(c2ccc(-c3cc4c(N5CCN(C(=O)C6CC6)CC5)ccnn4c3)cc2)C1 (stereo not drawn) [Compound 201]

- IC50 [1]: < 10 nM
- IC50 (human ALK2 R206H): < 100 nM
SMILES: CCN1CCCC(c2ccc(-c3cc4c(N5CCN(C(=O)C6CC6)CC5)ccnn4c3)cc2)C1 (stereo not drawn) [Compound 202]

- IC50 [1]: < 10 nM
- IC50 (human ALK2 R206H): < 100 nM
SMILES: CC(C)N1CC[C@@H](c2ccc(-c3cc4c(N5CCN(C(=O)C6CC6)CC5)ccnn4c3)cc2)C1 [Compound 203]

- IC50 [1]: < 10 nM
- IC50 (human ALK2 R206H): < 100 nM
SMILES: CC(C)N1CC[C@H](c2ccc(-c3cc4c(N5CCN(C(=O)C6CC6)CC5)ccnn4c3)cc2)C1 [Compound 204]

- IC50 [1]: 10 to 50 nM
- IC50 (human ALK2 R206H): 100 to 500 nM
SMILES: CCN1CCC(c2ccc(-c3cc4c(N5CCN(C(=O)CC6CC6)CC5)ccnn4c3)cc2)C1 (stereo not drawn) [Compound 205]

- IC50 [1]: < 10 nM
- IC50 (human ALK2 R206H): < 100 nM
SMILES: CCN1CCC[C@H](c2ccc(-c3cc4c(N5CCN(C(=O)C6CC6)CC5)ccnn4c3)cc2)C1 [Compound 207]

- IC50 [1]: < 10 nM
- IC50 (human ALK2 R206H): < 100 nM
SMILES: CCN1CCC(c2ccc(-c3cc4c(N5CCN(C(=O)[C@H]6C[C@@H]6C)CC5)ccnn4c3)cc2)C1 (stereo partly drawn) [Compound 208]

- IC50 [1]: 10 to 50 nM
- IC50 (human ALK2 R206H): 100 to 500 nM
SMILES: CCN1CCOC(c2ccc(-c3cc4c(N5CCN(C(=O)C6CC6)CC5)ccnn4c3)cc2)C1 (stereo not drawn) [Compound 214, cyclopropyl(4-(6-(4-(4-ethylmorpholin-2-yl)phenyl)pyrrolo[1,2-b]pyridazin-4-yl)piperazin-1-yl)methanone]

- IC50 [1]: < 10 nM
- IC50 (human ALK2 R206H): < 100 nM
SMILES: CCN1CCC(Oc2ccc(-c3cc4c(N5CCN(C(=O)C6CC6)CC5)ccnn4c3)cc2)C1 (stereo not drawn) [Compound 216]

The remaining lines, values behind:

SMILES: CCNC(=O)N1CCN(c2ccnn3cc(-c4cc5c(s4)CN(C(C)C)CC5)cc23)CC1 [Compound 192]
- IC50 [1]: < 10 nM
- IC50 (human ALK2 R206H): < 100 nM

SMILES: CCNC(=O)N1CCN(c2ccnn3cc(-c4nc5c(s4)CN(C(C)C)CC5)cc23)CC1 [Compound 193]
- IC50 [1]: < 10 nM
- IC50 (human ALK2 R206H): < 100 nM

SMILES: O=C(C1CC1)N1CCN(c2ccnn3cc(-c4cnn(C5CNCC(F)(F)C5)c4)cc23)CC1 (stereo not drawn) [Compound 194, cyclopropyl(4-(6-(1-(5,5-difluoropiperidin-3-yl)-1H-pyrazol-4-yl)pyrrolo[1,2-b]pyridazin-4-yl)piperazin-1-yl)methanone]
- IC50 [1]: 10 to 50 nM
- IC50 (human ALK2 R206H): 100 to 500 nM

SMILES: N#C[C@H]1C[C@@H]1C(=O)N1CCN(c2ccnn3cc(-c4ccc(C5CNCCO5)cc4)cc23)CC1 (stereo partly drawn) [Compound 195]
- IC50 [1]: < 10 nM
- IC50 (human ALK2 R206H): < 100 nM

SMILES: O=C(C1CC1)N1CCN(c2ccnn3cc(-c4ccc(N5CCN6CCC6C5)cc4)cc23)CC1 (stereo not drawn) [Compound 196]
- IC50 [1]: < 10 nM
- IC50 (human ALK2 R206H): 100 to 500 nM

SMILES: O=C(C1CC1)N1CCN(c2ccnn3cc(-c4ccc(N5CC6(CCNC6)C5)cc4)cc23)CC1 [Compound 197]
- IC50 [1]: 10 to 50 nM
- IC50 (human ALK2 R206H): 100 to 500 nM

SMILES: C[C@@H]1CN(c2ccnn3cc(-c4ccc(N5CCNCC5)cc4)cc23)CCN1C(=O)CCC#N [Compound 199]
- IC50 [1]: < 10 nM
- IC50 (human ALK2 R206H): < 100 nM

SMILES: CC(C)N1CCCC1c1ccc(-c2cc3c(N4CCN(C(=O)C5CC5)CC4)ccnn3c2)cc1 (stereo not drawn) [Compound 209]
- IC50 [1]: < 10 nM
- IC50 (human ALK2 R206H): < 100 nM

SMILES: CC(C)N1CCC[C@H]1c1ccc(-c2cc3c(N4CCN(C(=O)C5CC5)CC4)ccnn3c2)cc1 [Compound 210]
- IC50 [1]: < 10 nM
- IC50 (human ALK2 R206H): < 100 nM

SMILES: CC(C)N1CCC[C@@H]1c1ccc(-c2cc3c(N4CCN(C(=O)C5CC5)CC4)ccnn3c2)cc1 [Compound 211]
- IC50 [1]: < 10 nM
- IC50 (human ALK2 R206H): < 100 nM

SMILES: CN1CCN(c2ccc(-c3cc4c(N5CCN(C(=O)C6CCC6)CC5)ccnn4c3)cc2)CC1 [Compound 212]
- IC50 [1]: < 10 nM
- IC50 (human ALK2 R206H): 100 to 500 nM

SMILES: CCN1CCN(c2ccc(-c3cc4c(N5CCN(C(=O)C6CC6)CC5)ccnn4c3)cc2)CC1 [Compound 213]
- IC50 [1]: < 10 nM
- IC50 (human ALK2 R206H): < 100 nM

SMILES: CCN1CC(COc2ccc(-c3cc4c(N5CCN(C(=O)C6CC6)CC5)ccnn4c3)cc2)C1 [Compound 217]
- IC50 [1]: < 10 nM
- IC50 (human ALK2 R206H): 100 to 500 nM

SMILES: CC(C)N1CC(O)(c2ccc(-c3cc4c(N5CCN(C(=O)C6CC6)CC5)ccnn4c3)cc2)C1 [Compound 219]
- IC50 [1]: < 10 nM
- IC50 (human ALK2 R206H): < 100 nM
